Measured values as given in PubChem BioAssay (NCI).
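Grown in 96-well plates, cells were treated for 48 hours with each compound at five concentrations. Insufficient inhibition: endpoint recorded as highest concentration tested. GI50 is the concentration that inhibits growth by half. TGI is the concentration that stops growth completely.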

Columns and labels:
Assay in all cases: inhibition of tumour cell growth, NCI panel, 48 h
UACC-62 melanoma = system: UACC-62 melanoma
NCI/ADR-RES ovarian = system: NCI/ADR-RES ovarian
KM12 colon = system: KM12 colon
SNB-19 CNS = system: SNB-19 CNS
RPMI-8226 leukemia = system: RPMI-8226 leukemia
MALME-3M melanoma = system: MALME-3M melanoma
NCI-H226 lung = system: NCI-H226 lung
SN12C renal = system: SN12C renal

Row | Compound | GI50 (UACC-62 melanoma) [µM] | TGI (UACC-62 melanoma) [µM] | GI50 (NCI/ADR-RES ovarian) [µM] | TGI (NCI/ADR-RES ovarian) [µM] | GI50 (KM12 colon) [µM] | TGI (KM12 colon) [µM] | GI50 (SNB-19 CNS) [µM] | TGI (SNB-19 CNS) [µM] | GI50 (RPMI-8226 leukemia) [µM] | TGI (RPMI-8226 leukemia) [µM] | GI50 (MALME-3M melanoma) [µM] | GI50 (NCI-H226 lung) [µM] | TGI (NCI-H226 lung) [µM] | GI50 (SN12C renal) [µM] | TGI (SN12C renal) [µM] | TGI (MALME-3M melanoma) [µM]
1 | COc1cc(F)ccc1-c1cc(Nc2cc(CS(C)(=N)=O)ccn2)ncc1F (configuration not stated) | 0.0555 | 0.342 | 0.166 | > 36.6 | 0.0479 | 15.6 | 0.0644 | > 100 | 0.11 | 0.662 | 0.2 | 0.0375 | > 100 | 0.0583 | > 100 | 
2 | CC(=O)c1cccc(NC(=O)C(=O)c2c(O)c3ccccc3oc2=O)c1 |  | > 100 |  | > 100 |  | > 100 |  | > 100 |  | > 100 |  |  | > 100 |  | > 100 | > 100
3 | CCOC(=O)c1ccc(NC(=O)NC2=NCCS2)cc1 | 7.96 | > 100 | 0.505 | > 49.6 | 0.434 | > 100 | 2.86 | > 100 | 1.93 | > 100 | 0.465 | 3.14 | > 100 | 0.954 | > 100 | > 100
4 | O=C(Nc1cccc2[nH]c(C(F)(F)F)nc12)c1cc(Cl)ccc1Cl | 3.47 | 16.1 | 2.87 | 8.89 | 3.37 | 11.2 | 3.72 | > 100 | 2.3 | 6.3 | 2.85 | 3.39 | 25.5 | 2.78 | 9.59 | 8.61
5 | COc1cccc(CNc2ncnc3c2ncn3C2OC(CO)C(O)C2O)c1O (configuration not stated) | 0.347 | > 31.8 | 0.168 | > 100 | 12.9 | > 100 | 0.48 | > 100 | 0.319 | > 100 | 0.259 |  | > 100 | 0.045 | > 100 | 4.38
6 | CSc1ncnc2c1ncn2CC(=O)C1CCC2C3CCC4=CC(=O)CCC4(C)C3CCC12C (configuration not stated) |  | 14 |  | 7.57 |  | 9.88 |  | > 100 |  | 5.21 |  |  | 29.8 |  | > 93.8 | 31.7
7 | CCCN(CCC)c1ccc(C=O)c(Cl)c1 | 0.317 | 1.81 | 29 | > 100 | 28.6 | > 83.6 | 25.8 | > 100 | 40.1 | > 100 | 23.4 | 0.152 | 0.322 | 28.1 | > 100 | > 69
8 | COc1ccc(-c2c(C#N)c(N)nc(N3CCOCC3)c2C#N)cc1 | 14.6 | 74.7 | 20.6 | 87.3 | 21.7 | 87.4 | 21.8 | > 100 | 16.1 | 58.7 | 11.7 | 26.3 | > 100 | 25.7 | > 100 | 54.7
9 | CC(/C=C/C(O)=C1/C(=O)CNC1=O)=C\[C@@H](C)[C@H]1O[C@@]2(C)O[C@H](C(=O)[C@@H]3O[C@@]32C)[C@@H]1C |  | 33.3 |  | 63.7 |  | 36.4 |  | 55.4 |  | 35.9 |  |  | 54.4 |  | 47.3 | 38
10 | NC(=O)c1cccnc1 | > 100 | > 100 | > 100 | > 100 | > 100 | > 100 | > 100 | > 100 | > 100 | > 100 | > 100 | > 100 | > 100 | > 100 | > 100 | > 100
11 | Cn1c(=O)n(C)c2cc(CNCCNc3ccnc4cc(Cl)ccc34)ccc21 | 17.7 | 35.6 | > 100 | > 100 | 37.3 | > 100 | 27.9 | > 100 | 20.9 | 65.6 | 16.6 | 72 | > 100 | 45.7 | > 100 | 32.9
12 | COc1ccc2c(c1)C(=O)/C(=C/c1cccc(OCC(=O)Nc3nc(C)c(C)s3)c1)O2 | 1.97 | 7.98 | 3.76 | 29.6 | 0.075 | 2.62 | 12.2 | 25.7 | 0.104 | 0.587 | 0.322 | 1.85 | 5.27 | 0.171 | 2.66 | 1.03
13 | CC(C)(C)[Si](C)(C)OC1[C@@H](CNC(N)=O)O[C@@H](n2cnc3c(NC(=O)Nc4ccccc4)ncnc32)[C@H]1O[Si](C)(C)C(C)(C)C (some centres not stated) | 6.19 | 12.6 | 2.93 | 9.81 | 1.09 | 2.2 | 5.7 | 12.4 | 1.12 | 2.63 | 5.19 | 5.39 | 11.7 | 0.916 | 1.84 | 12.5
14 | CC(=O)c1ccc2c(c1)N(CCCN1CCN(CCO)CC1)c1ccccc1S2 | 1.88 | 3.83 | 3.05 | 12.9 | 1.97 | 4.04 | 2.44 | 6.97 | 2.4 | 8.75 | 1.75 | 7.14 | 27.9 | 3.88 | 17 | 3.62
15 | COc1cc([C@@H]2c3cc4c(cc3[C@H](OC(C)=O)[C@H]3COC(=O)[C@@H]23)OCO4)cc(OC)c1OC | 0.405 | > 100 | 0.336 |  | 0.298 |  | 0.393 | > 100 | 0.445 | > 100 |  | 3.82 |  | 0.759 | > 100 | > 100
16 | O=C(c1ccc2ccccc2c1)c1nc2cc(F)ccc2[n+]([O-])c1C(F)(F)F | 17 | 32.6 | 21.2 | 42.8 | 19 | 39.4 | 19.4 | 37.8 | 20.1 | 53.7 | 17.3 | 22.2 | 46.5 | 26.6 | 71.4 | 32.9
17 | c1ccc(-c2nc3n(c2-c2ccc4c(c2)OCO4)CCC3)nc1 | 5.31 | 16.2 | 0.573 | 9.59 | 5.9 | > 25 | 8.74 | > 25 | 9.88 | > 25 | 8.19 | 4.54 | 17 | 7.56 | > 25 | > 23.4
18 | CN(Cc1ccc(F)cc1)c1ccc(CO)c(Cl)c1 | 0.323 | 3.32 | 17.7 | > 64.3 | 27.1 | > 76.9 | 38.3 | > 100 | 12.4 | 60.6 | 24.5 | 0.126 | 0.278 | 23.2 | > 100 | 71.9
19 | C=C1C(=O)O[C@H]2[C@H]1CC/C(COC(=O)N[C@H]1C[C@H](O[C@H]3C[C@](O)(C(=O)CO)Cc4c(O)c5c(c(O)c43)C(=O)c3c(OC)cccc3C5=O)O[C@@H](C)[C@H]1O)=C\CC[C@@]1(C)O[C@@H]21 | 1.69 | 7.02 | > 50 | > 50 | 13.2 | 40.7 | 13.2 | > 50 | 1.33 | 3.97 | 0.879 | 5.33 | 12.6 | 5.07 | 14.4 | 1.9
20 | O=C1c2cccnc2-c2nc(-c3cccnc3)cc3c2c1nc1ccccc13 | 13.3 | 28.3 | 3.12 | > 23.9 | 4.16 | > 44.5 | 5.59 | 21 | 2.59 | > 100 | 17.6 | 2.02 | 5.53 | 2.18 | 5.02 | 32.4
21 | COc1cc(OCc2cccc(-c3ccccc3)c2C)cc(OC)c1CN1CCCCC1C(=O)NCCOCCOCCN (configuration not stated) | 1.79 | 3.41 | 12.6 | 27.2 | 3.2 | 11.4 | 2.95 | 10.6 | 2.04 | 5 | 1.55 | 14.7 | 30.9 | 2.47 | 7.01 | 3.05
22 | O=C(CC1(O)C(=O)Nc2ccc(F)cc21)c1ccc(C(=O)NCC2CCC3(CC2)OOC2(CCCCC2)OO3)cc1 (configuration not stated) | 12.2 | 29 | 15.9 | 48.3 | 4.09 | 17.5 | 14.8 | 36.5 | 2.57 | 8.55 | 2.21 | 10.3 | 32.2 | 10.8 | 33.6 | 5.13
